Measurements as given in patent US20210121460A1, “A TRIPLE PHARMACEUTICAL COMBINATION COMPRISING DABRAFENIB, TRAMETINIB AND AN ERK INHIBITOR” (NOVARTIS AG, priority 2018, published 2021).

Each molecule was assayed on BRAF V600E CRC xenograft model HT29 (assay: In vivo antitumor efficacy, HT29 BRAF V600E CRC xenograft model (Example 4, 14 day)). Details: HT29 in female nude mice; compound A 75 mg/kg, dabrafenib 30 mg/kg, trametinib 0.3 mg/kg QD PO, cetuximab 20 mg/kg 2QW IP.
Protocol: HT29 xenografts was established by direct subcutaneous (sc) implantation of 2×10^6 cells into the right axillary region of 6-7 week old female nude mice.
Animals were weighed at dosing day(s) and dose was body weight adjusted, dosing volume was 10 ml/kg. Tumor dimensions and body weights were collected at the time of randomization and twice weekly thereafter for the study duration.
Percent treatment/control (T/C) values were calculated using the following formulae:
% Regression=100×ΔT/T0 if ΔT<0;
where: T=mean tumor volume of the drug-treated group on the final day of the study; ΔT=mean tumor volume of the drug-treated group on the final day of the study—mean tumor volume of the drug-treated group on initial day of dosing; T0=mean tumor volume of the drug-treated group on the day of cohort; C=mean tumor volume of the control group on the final day of the study; and ΔC=mean tumor volume of the control group on the final day of the study—mean tumor volume of the control group on initial day of dosing.
All data were expressed as mean±standard error of the mean (SEM). Delta tumor volume and percent body weight changes were used for statistical analysis. Between group comparisons were carried out using the One way ANOVA followed by a post hoc Tukey test. For all statistical evaluations, the level of significance was set at p<0.05. Significance compared to the untreated control group is reported unless otherwise stated.

| Structure (SMILES) | T/C % or Reg % at day 39 post implantation [%] |
| --- | --- |
| CNC[C@@H](NC(=O)c1ccc(-c2nc([C@H]3CC[C@H](O)[C@@H](F)C3)cnc2N)cc1F)c1cc(F)cc(Br)c1 [compound A, 4-(3-amino-6-((1S,3S,4S)-3-fluoro-4-hydroxycyclohexyl)pyrazin-2-yl)-N—((S)-1-(3-bromo-5-fluorophenyl)-2-(methylamino)ethyl)-2-fluorobenzamide] | 53.8 |
| CC(C)(C)c1nc(-c2cccc(NS(=O)(=O)c3c(F)cccc3F)c2F)c(-c2ccnc(N)n2)s1 [dabrafenib, N-(3-(5-(2-aminopyrimidin-4-yl)-2-(tert-butyl)thiazol-4-yl)-2-fluorophenyl)-2,6-difluorobenzenesulfonamide] | 58.8 |
| CC(=O)Nc1cccc(-n2c(=O)n(C3CC3)c(=O)c3c(Nc4ccc(I)cc4F)n(C)c(=O)c(C)c32)c1 [trametinib, N-(3-(3-cyclopropyl-5-((2-fluoro-4-iodophenyl)amino)-6,8-dimethyl-2,4,7-trioxo-3,4,6,7-tetrahydropyrido[4,3-d]pyrimidin-1(2H)-yl)phenyl)acetamide] | 47.7 |
